Patent publication US20240425571A1, “GLYCOPROTEIN A REPETITIONS PREDOMINANT (GARP)-BINDING ANTIBODIES AND USES THEREOF” (OHIO STATE INNOVATION FOUNDATION, priority 2021, published 2024)

What was measured:
B16-F1 melanomas = experiment: B16-F1 melanoma, adoptive T cell therapy with anti-platelet agents; format: in vivo, mouse; conditions: for anti-tumor effect: aspirin and clopidogrel added to Cy, no T cells; for antigen-specific T cells in blood, ILNs and spleens: aspirin and clopidogrel concurrent with ACT; for efficacy and relapse-free survival: aspirin and clopidogrel plus Cy and adoptive Pmel T cell transfer
[1] = tested on: MB-49 Bladder Cancer cells; experiment: MB-49 bladder cancer model in hLRRC32KI mice; conditions: FTY720 2 mg/kg every two days, 6 doses, with PIIO-1
Protocol: A. 1×10^5 MB-49 Bladder Cancer cells were injected s.c. on the right flank of hLRRC32KI mice. […] Representative tumor curve. B. 1×10^5 MB-49 Bladder cancer cells were injected s.c. on the right flank of hLRRC32KI mice. […] Tumors were collected and perform flow cytometry on day 10. Frequency of CD8+ T cells as a proportion of live CD45+ lymphocytes (left). 1×10^5 MB-49 Bladder Cancer cells were injected s.c. on the right flank of hLRRC32KI mice. […] Tumors were collected and perform flow cytometry on day 22. […] C. Frequency of CD25+Foxp3^+ Tregs in CD4+ tumor-infiltrating T cells (left). […] UMAP dimension reduction of tumor-infiltrating CD8+ T cells from B after staining with 33 markers and spectral flow cytometry analysis. Shown is the data gated on live CD45+CD3+CD8+ T cells, subsampled on 5000 cells per sample Unsupervised clustering analysis was done using FlowSOM algorithm with an elbow method approach for cluster number determination. E. Heatmap of D showing expression levels of indicated markers by each cluster. […] Cluster differences were measured by two-tailed Student's t test.
A. Experimental scheme. […] Overall survival is analyzed by log-rank (Mantel-Cox) test. […]
A. 1×10^5 MB-49 Bladder Cancer cells were injected s.c. in the right flank of hLRRC32KI mice. […] B. Quantification of panel A. 1×10^5 MB-49 Bladder Cancer cells were injected s.c. on the right flank of hLRRC32KI mice. […]

[2] = tested on: platinum resistant advanced NSCLC; experiment: POPLAR database analysis by LRRC32 (GARP) expression; format: in vivo, human; conditions: for OS or disease control rate, Atezolizumab vs docetaxel: patients with high GARP expression
Source text: Mechanistically, PD-1 blockade works primarily by targeting the progenitor exhausted population of CD8^+ T cells in the TME (TCF-1 expressing, SlamF6 expressing, PD-1 intermediate to low expressing). These cells deliver the proliferative burst following treatment resulting in increased differentiation to the terminal exhausted population, which is responsible for tumor clearance. […] Thus, we hypothesized GARP expression can contribute to PD-1/L1 ICB resistance. To address this hypothesis, we first mined the POPLAR database which compared PD-L1 blockade Atezolizumab with chemotherapy (i.e., docetaxel) for the platinum resistant advanced NSCLC. In this multi-center international phase II trial, bulk RNAseq data from pre-treatment tumors were available for 86 patients enrolled primarily in the US sites. We divided these patients into GARP high and low expression group with median expression level of LRRC32 transcript as the cutoff. […] To further address this hypothesis, we tested the combination therapy of anti-GARP antibody huPIIO-1 and PD-1 blockade in murine Lewis Lung Carcinoma (LLC) and CMT-167 lung cancer models, both of which are considered immunologically cold tumors with resistance to single agent PD-1 ICB. To do so, the human GARP KI mice were challenged with LCC followed by treatment with 200 μg/mouse of Isotype, huPIIO-1, anti-PD-1 antibody, or a combination of huPIIO-1 and PD-1 every 3 days starting on day 8 post tumor challenge for a total of 4 injections.

Baculovirus = Baculovirus (BV) ELISA for non-specific binding
Protocol: Baculovirus (BV) ELISA was employed as a preliminary assay to evaluate antibody's potential nonspecific binding risk.
In Baculovirus (BV) ELISA, the inventor used Rituxan Mab as reference. […] If a clone only has binding on BV, but not on 293 cells, it will be considered as having a low risk of non-specific binding.
Methods—Baculovirus ELISA. Plates are coated with 50 μl of 1:500 diluted Baculovirus sample in PBS in each well. Plates are kept at 4° C. for overnight. The plates are washed with 300 μL of wash buffer ×3 and 200 μl blocking buffer (1% BSA) is added at RT for 60 min. Plates are washed with 300 μl of wash buffer ×3 and 100 μl of diluted Abs are added at different concentrations/well, followed by RT incubation for 1 hr. Plates are washed with 300 μl of wash buffer ×6 and 100 μl of 1:5000 HRP conjugated second Ab in PBS is added followed by RT incubation for 1 hr. The plates are washed with 300 μl of wash buffer ×6. Developing buffer is added and the plate is read.

[3] = patients with low GARP expression

Molecule: O=P1(N(CCCl)CCCl)NCCCO1 (stereo not drawn) [Cy, cyclophosphamide]
- tumor control (B16-F1 melanomas; Cy alone): failed to control tumors

Molecule: CCCCCCCCc1ccc(CCC(N)(CO)CO)cc1 [FTY720]
- effect of FTY720 on anti-tumor efficacy of PIIO-1 and T cell infiltration [1]: abrogated the anti-tumor efficacy of PIIO-1 and effectively blocked T cell infiltration

Molecule: CC(=O)Oc1ccccc1C(=O)O [aspirin]
- anti-tumor effect (B16-F1 melanomas): no anti-tumor effects
- antigen-specific T cells in blood, ILNs and spleens (B16-F1 melanomas): sustained at higher numbers
- efficacy and relapse-free survival (B16-F1 melanomas): highly effective against B16-F1 with relapse-free survival of most mice beyond 3 months

Molecule: COC(=O)[C@H](c1ccccc1Cl)N1CCc2sccc2C1 [clopidogrel]
- anti-tumor effect (B16-F1 melanomas): no anti-tumor effects
- antigen-specific T cells in blood, ILNs and spleens (B16-F1 melanomas): sustained at higher numbers
- efficacy and relapse-free survival (B16-F1 melanomas): highly effective against B16-F1 with relapse-free survival of most mice beyond 3 months

Molecule: CC(=O)O[C@@]12CO[C@@H]1C[C@H](O)[C@@]1(C)C(=O)[C@H](O)C3=C(C)[C@@H](OC(=O)[C@H](O)[C@@H](NC(=O)OC(C)(C)C)c4ccccc4)C[C@@](O)([C@@H](OC(=O)c4ccccc4)[C@H]21)C3(C)C [docetaxel]
- OS or disease control rate, Atezolizumab vs docetaxel [2]: did not demonstrate any difference
- disease control rate [2, 3]: 9.5%

Molecule: Atezolizumab: PD-L1 blockade
- OS or disease control rate, Atezolizumab vs docetaxel [2]: did not demonstrate any difference
- disease control rate [2, 3]: 68.2%
- overall survival HR, Atezolizumab vs docetaxel ([2]; patients with low GARP expression, p=0.086): 1.89

Molecule: Rituxan: Rituxan Mab used as reference in BV ELISA [reference compound]
- BV ELISA with purified IgG, raw BV binding data (Baculovirus; Ab. Conc. 0.15625 ug/ml): 12.1
- BV ELISA with purified IgG, raw BV binding data (Baculovirus; Ab. Conc. 0.3125 ug/ml): 13.7
- BV ELISA with purified IgG, raw BV binding data (Baculovirus; Ab. Conc. 0.625 ug/ml): 13.7
- BV ELISA with purified IgG, raw BV binding data (Baculovirus; Ab. Conc. 1.25 ug/ml): 13.0
- BV ELISA with purified IgG, raw BV binding data (Baculovirus; Ab. Conc. 2.5 ug/ml): 17.0
- BV ELISA with purified IgG, raw BV binding data (Baculovirus; Ab. Conc. 5 ug/ml): 22.7
- BV ELISA with purified IgG, raw BV binding data (Baculovirus; Ab. Conc. 10 ug/ml): 66.0
- BV ELISA with purified IgG, raw BV binding data (Baculovirus; Ab. Conc. 20 ug/ml): 98.8
